In PubChem BioAssay (NCI):
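96-well plates; 48 h exposure; 5 concentrations. Endpoints by linear interpolation between flanking doses. Not reached: highest tested concentration assigned. TGI marks complete inhibition of growth.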

Tests used:
Assay in all cases: inhibition of tumour cell growth, NCI panel, 48 h
HCT-15 colon = test system: HCT-15 colon
NCI/ADR-RES ovarian = test system: NCI/ADR-RES ovarian
PC-3 prostate = test system: PC-3 prostate
SN12C renal = test system: SN12C renal
U251 CNS = test system: U251 CNS
KM12 colon = test system: KM12 colon
HOP-62 NSCLC = test system: HOP-62 NSCLC
A549 NSCLC = test system: A549 NSCLC
DU-145 prostate = test system: DU-145 prostate
M14 melanoma = test system: M14 melanoma
BT-549 breast = test system: BT-549 breast
HS 578T breast = test system: HS 578T breast
OVCAR-5 ovarian = test system: OVCAR-5 ovarian
SK-OV-3 ovarian = test system: SK-OV-3 ovarian
SF-268 CNS = test system: SF-268 CNS
MDA-N = test system: MDA-N
NCI-H460 lung = test system: NCI-H460 lung
HOP-92 NSCLC = test system: HOP-92 NSCLC
HL-60(TB) leukemia = test system: HL-60(TB) leukemia
COLO 205 colon = test system: COLO 205 colon
A498 renal = test system: A498 renal
TK-10 renal = test system: TK-10 renal
SR leukemia = test system: SR leukemia
SNB-75 CNS = test system: SNB-75 CNS
UACC-62 melanoma = test system: UACC-62 melanoma
NCI-H522 lung = test system: NCI-H522 lung
CCRF-CEM leukemia = test system: CCRF-CEM leukemia
SF-539 CNS = test system: SF-539 CNS
SF-295 CNS = test system: SF-295 CNS
MDA-MB-231 breast = test system: MDA-MB-231 breast
UO-31 renal = test system: UO-31 renal
NCI-H226 lung = test system: NCI-H226 lung
UACC-257 melanoma = test system: UACC-257 melanoma
MCF7 breast = test system: MCF7 breast
LOX IMVI melanoma = test system: LOX IMVI melanoma
MOLT-4 leukemia = test system: MOLT-4 leukemia
RXF 393 renal = test system: RXF 393 renal
SW-620 colon = test system: SW-620 colon
IGROV1 ovarian = test system: IGROV1 ovarian
HCT-116 colon = test system: HCT-116 colon
SNB-19 CNS = test system: SNB-19 CNS
OVCAR-3 ovarian = test system: OVCAR-3 ovarian
HT29 colon = test system: HT29 colon
MALME-3M melanoma = test system: MALME-3M melanoma
786-0 renal = test system: 786-0 renal
OVCAR-8 ovarian = test system: OVCAR-8 ovarian
T-47D breast = test system: T-47D breast
CAKI-1 renal = test system: CAKI-1 renal
K-562 leukemia = test system: K-562 leukemia
EKVX NSCLC = test system: EKVX NSCLC
MDA-MB-435 = test system: MDA-MB-435
NCI-H23 lung = test system: NCI-H23 lung
SK-MEL-28 melanoma = test system: SK-MEL-28 melanoma
RPMI-8226 leukemia = test system: RPMI-8226 leukemia
OVCAR-4 ovarian = test system: OVCAR-4 ovarian
HCC-2998 colon = test system: HCC-2998 colon
SK-MEL-2 melanoma = test system: SK-MEL-2 melanoma
ACHN renal = test system: ACHN renal
SK-MEL-5 melanoma = test system: SK-MEL-5 melanoma

CN1CCN(c2ccc(-n3cc(C(=O)O)c(=O)c4cc(F)c(N5CCN(C)CC5)cc43)nc2)CC1
TGI (HCT-15 colon): > 100 µM | TGI (NCI/ADR-RES ovarian): > 100 µM | TGI (PC-3 prostate): > 100 µM | TGI (SN12C renal): > 100 µM | TGI (U251 CNS): > 100 µM | TGI (KM12 colon): > 100 µM | TGI (HOP-62 NSCLC): > 100 µM | TGI (A549 NSCLC): > 100 µM | TGI (DU-145 prostate): > 100 µM | TGI (M14 melanoma): > 100 µM | TGI (BT-549 breast): > 100 µM | TGI (HS 578T breast): > 100 µM | TGI (OVCAR-5 ovarian): > 100 µM | TGI (SK-OV-3 ovarian): > 100 µM | TGI (SF-268 CNS): > 100 µM | TGI (MDA-N): > 100 µM | TGI (NCI-H460 lung): > 100 µM | TGI (HOP-92 NSCLC): > 100 µM | TGI (HL-60(TB) leukemia): > 100 µM | TGI (COLO 205 colon): > 100 µM | TGI (A498 renal): > 100 µM | TGI (TK-10 renal): > 100 µM | TGI (SR leukemia): > 100 µM | TGI (SNB-75 CNS): > 100 µM | TGI (UACC-62 melanoma): > 100 µM | TGI (NCI-H522 lung): > 100 µM | TGI (CCRF-CEM leukemia): > 100 µM | TGI (SF-539 CNS): > 100 µM | TGI (SF-295 CNS): > 100 µM | TGI (MDA-MB-231 breast): > 100 µM | TGI (UO-31 renal): > 100 µM | TGI (NCI-H226 lung): > 100 µM | TGI (UACC-257 melanoma): > 100 µM | TGI (MCF7 breast): > 100 µM | TGI (LOX IMVI melanoma): > 100 µM | TGI (MOLT-4 leukemia): > 100 µM | TGI (RXF 393 renal): > 100 µM | TGI (SW-620 colon): > 100 µM | TGI (IGROV1 ovarian): > 100 µM | TGI (HCT-116 colon): > 100 µM | TGI (SNB-19 CNS): > 100 µM | TGI (OVCAR-3 ovarian): > 100 µM | TGI (HT29 colon): > 100 µM | TGI (MALME-3M melanoma): > 100 µM | TGI (786-0 renal): > 100 µM | TGI (OVCAR-8 ovarian): > 100 µM | TGI (T-47D breast): > 100 µM | TGI (CAKI-1 renal): > 100 µM | TGI (K-562 leukemia): > 100 µM | TGI (EKVX NSCLC): > 100 µM | TGI (MDA-MB-435): > 100 µM | TGI (NCI-H23 lung): > 100 µM | TGI (SK-MEL-28 melanoma): > 100 µM | TGI (RPMI-8226 leukemia): > 100 µM | TGI (OVCAR-4 ovarian): > 100 µM

O=C1O[C@H]2[C@@H]3OC(=O)c4cc(O)c(O)c(O)c4-c4c(cc(O)c(O)c4O)C(=O)OC[C@H]2O[C@@H](OC(=O)c2cc(O)c(O)c(O)c2)[C@@H]3OC(=O)c2cc(O)c(O)c3c2[C@@H]2C1=CC(=O)C(O)(O)C2(O)O3 (stereo partly specified)
TGI (HCT-15 colon): > 100 µM | TGI (NCI/ADR-RES ovarian): > 100 µM | TGI (PC-3 prostate): > 100 µM | TGI (SN12C renal): 32.3 µM | TGI (U251 CNS): 33.5 µM | TGI (KM12 colon): 80.1 µM | TGI (HOP-62 NSCLC): > 100 µM | TGI (A549 NSCLC): > 100 µM | TGI (DU-145 prostate): > 100 µM | TGI (M14 melanoma): > 100 µM | TGI (BT-549 breast): > 100 µM | TGI (HS 578T breast): > 100 µM | TGI (OVCAR-5 ovarian): 67.1 µM | TGI (SK-OV-3 ovarian): > 100 µM | TGI (SF-268 CNS): > 100 µM | TGI (MDA-N): 34.6 µM | TGI (NCI-H460 lung): > 100 µM | TGI (HOP-92 NSCLC): > 100 µM | TGI (HL-60(TB) leukemia): > 100 µM | TGI (COLO 205 colon): > 100 µM | TGI (A498 renal): > 100 µM | TGI (SR leukemia): > 100 µM | TGI (SNB-75 CNS): 86.4 µM | TGI (UACC-62 melanoma): > 100 µM | TGI (NCI-H522 lung): 82.9 µM | TGI (CCRF-CEM leukemia): > 100 µM | TGI (SF-295 CNS): > 100 µM | TGI (MDA-MB-231 breast): 40.2 µM | TGI (UO-31 renal): > 100 µM | TGI (NCI-H226 lung): > 100 µM | TGI (UACC-257 melanoma): > 100 µM | TGI (MCF7 breast): 50.6 µM | TGI (LOX IMVI melanoma): 26.1 µM | TGI (MOLT-4 leukemia): 92 µM | TGI (HCC-2998 colon): > 100 µM | TGI (RXF 393 renal): > 100 µM | TGI (SW-620 colon): 38.5 µM | TGI (IGROV1 ovarian): > 100 µM | TGI (HCT-116 colon): 32 µM | TGI (SNB-19 CNS): > 100 µM | TGI (SK-MEL-2 melanoma): > 100 µM | TGI (OVCAR-3 ovarian): > 100 µM | TGI (ACHN renal): > 100 µM | TGI (HT29 colon): 34.2 µM | TGI (MALME-3M melanoma): > 100 µM | TGI (786-0 renal): 39.8 µM | TGI (OVCAR-8 ovarian): 40.5 µM | TGI (T-47D breast): 90.7 µM | TGI (SK-MEL-5 melanoma): > 100 µM | TGI (CAKI-1 renal): 27.5 µM | TGI (K-562 leukemia): 94.5 µM | TGI (EKVX NSCLC): > 100 µM | TGI (MDA-MB-435): 32.2 µM | TGI (NCI-H23 lung): > 100 µM | TGI (SK-MEL-28 melanoma): > 100 µM | TGI (RPMI-8226 leukemia): > 100 µM | TGI (OVCAR-4 ovarian): 39.4 µM

CC1Cc2cc(O)ccc2C2[C@@H]1C1CC[C@H](O)[C@@]1(C)C[C@@H]2O[N+](=O)[O-] (stereo partly specified)
TGI (HCT-15 colon): > 78.7 µM | TGI (NCI/ADR-RES ovarian): 38.9 µM | TGI (PC-3 prostate): > 100 µM | TGI (SN12C renal): > 94.4 µM | TGI (U251 CNS): 23 µM | TGI (KM12 colon): > 79.1 µM | TGI (HOP-62 NSCLC): 44.4 µM | TGI (A549 NSCLC): 79.7 µM | TGI (DU-145 prostate): 76.3 µM | TGI (M14 melanoma): 64.1 µM | TGI (BT-549 breast): 48.9 µM | TGI (HS 578T breast): 22.3 µM | TGI (OVCAR-5 ovarian): > 100 µM | TGI (SK-OV-3 ovarian): > 100 µM | TGI (SF-268 CNS): > 93.1 µM | TGI (MDA-N): 6.07 µM | TGI (NCI-H460 lung): > 95.7 µM | TGI (HOP-92 NSCLC): 97.6 µM | TGI (HL-60(TB) leukemia): 8.3 µM | TGI (COLO 205 colon): 50.6 µM | TGI (A498 renal): 78.7 µM | TGI (TK-10 renal): 63.8 µM | TGI (SR leukemia): > 56.8 µM | TGI (SNB-75 CNS): > 100 µM | TGI (UACC-62 melanoma): 44 µM | TGI (NCI-H522 lung): 61.3 µM | TGI (CCRF-CEM leukemia): 41.9 µM | TGI (SF-539 CNS): 18.9 µM | TGI (SF-295 CNS): 39.2 µM | TGI (MDA-MB-231 breast): 85.8 µM | TGI (UO-31 renal): 63.7 µM | TGI (NCI-H226 lung): > 100 µM | TGI (UACC-257 melanoma): 72.3 µM | TGI (MCF7 breast): 25.3 µM | TGI (LOX IMVI melanoma): 32.7 µM | TGI (MOLT-4 leukemia): > 100 µM | TGI (HCC-2998 colon): 22 µM | TGI (RXF 393 renal): 29.3 µM | TGI (SW-620 colon): > 100 µM | TGI (IGROV1 ovarian): > 100 µM | TGI (HCT-116 colon): 31.1 µM | TGI (SNB-19 CNS): 98.7 µM | TGI (SK-MEL-2 melanoma): 55.3 µM | TGI (OVCAR-3 ovarian): > 84.1 µM | TGI (ACHN renal): > 100 µM | TGI (HT29 colon): 31.1 µM | TGI (MALME-3M melanoma): > 79.6 µM | TGI (786-0 renal): 65.3 µM | TGI (OVCAR-8 ovarian): 74 µM | TGI (T-47D breast): > 84.3 µM | TGI (SK-MEL-5 melanoma): 17.8 µM | TGI (CAKI-1 renal): 73.6 µM | TGI (K-562 leukemia): 49.4 µM | TGI (EKVX NSCLC): > 100 µM | TGI (MDA-MB-435): 16.9 µM | TGI (NCI-H23 lung): 67.8 µM | TGI (SK-MEL-28 melanoma): 81.8 µM | TGI (RPMI-8226 leukemia): 50.2 µM | TGI (OVCAR-4 ovarian): > 100 µM
